The record followed here is patent publication US10045968B2, “Bicyclic compound, production and use thereof” (TOBIRA THERAPEUTICS, INC., priority 2001, dated 2018).

SMILES strings stand for the structures.

T1 sequence (P51681 whole entry): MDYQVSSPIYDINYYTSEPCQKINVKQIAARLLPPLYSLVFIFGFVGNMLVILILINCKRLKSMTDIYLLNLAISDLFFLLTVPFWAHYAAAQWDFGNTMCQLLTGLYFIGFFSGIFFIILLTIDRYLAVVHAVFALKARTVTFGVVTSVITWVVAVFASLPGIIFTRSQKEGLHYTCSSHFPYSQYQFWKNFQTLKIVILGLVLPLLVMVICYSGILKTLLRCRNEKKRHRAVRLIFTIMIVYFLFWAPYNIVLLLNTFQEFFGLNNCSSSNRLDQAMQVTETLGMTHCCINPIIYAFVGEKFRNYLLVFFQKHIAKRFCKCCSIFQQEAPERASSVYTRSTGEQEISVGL

The first assay concerns the target T1, human CCR5 (Homo sapiens, UniProt P51681).
T1 construct: expressed in transfected cells; host or cells: CHO-K1 cells, stably transfected with pCKR5 (pcDNA3.1 backbone), Geneticin-selected
Briefly: Inhibition of [125I]-RANTES binding to CCR5/CHO cells (CCR5 antagonist activity). The conditions noted are these: 40 min, test compound 1 μM, 100 pM [125I]-RANTES as ligand, room temperature, read-out: Binding Inhibitory Ratio (%). How it is done:
(1) Cloning of Human CCR5 Chemokine Receptor Cloning of CCR5 gene was conducted from human spleen cDNA by PCR method. Using cDNA (0.5 ng) from spleen (Toyobo, QUICK-Clone cDNA) as a genetic template, primer sets prepared by referring to CCR5 gene nucleotide sequence described by Samson et al. (Biochemistry 35 (11), 3362-3367 (1996), i.e., (2) Preparation of Expression Plasmid of Human CCR5 […] The DNA fragments and an expression plasmid for animal cells pcDN A3.1 (Funakoshi), which was previously digested by XbaI and BamHI, were mixed and ligated by DNA Ligation Kit Ver. 2 (Takara Shuzo). Transformation of E. coli JM109 competent cells (Takara Shuzo) gave plasmid pCKR5. (3) Introduction of the Human CCR5 Expression Plasmid into CHO-K1 Cells and Expression Thereof […] The cells were washed with PBS (Lifetech Oriental), centrifuged (1000 rpm, 5 minutes), and resuspended in PBS. The DNA was introduced into the cells using Gene Pulser (BioRad) according to the following conditions. […] The cells were diluted to a concentration of 10^4 cells/ml, and inoculated in 96 well plate (Becton Dickinson), to obtain Geneticin-resistant cells. The Geneticin-resistant cells ware grown in 96 well plate (Becton Dickinson), and CCR5 expressing cells were selected from the resistant cells. Namely, in an assay buffer, (Ham F12 medium containing 0.5% BSA, and 20 mM HEPES (Wako Pure Chemical Ind., pH 7.2)), containing 200 pM [^125I]-RANTES (Amersham) as a ligand, the cells were subjected to binding reaction at room temperature for 40 minutes. The well plate containing the cells was washed with ice-cooled PBS, added with 1M NaOH in an amount of 50 μl/well and stirred. The cells to which the ligand bound specifically, i.e., CCR5/CHO cells, were selected by measurement of radioactivity by γ-counter. (4) Evaluation of Compounds Based on CCR5 Antagonist Activity The CCR5/CHO cells were inoculated in 96 well microplate at a concentration of 5×10^4 cells/well, and grown for 24 hours. After removal of the medium by aspiration, to each well was added an assay buffer containing a test compound (1 μM), and (^125I)/RANTES (Amersham) used as a ligand at a concentration of 100 pM. The mixture was subjected to the reaction at room temperature for 40 minutes. After removal of the assay buffer by aspiration, each well was washed with cooled PBS twice. Then, 200 μl MicroScint 20 (Packerd) was added to each well, and the radioactivity of each well was measured by TopCount (Packard). According to the method above, inhibitory ratios to CCR5 binding of the test compounds were determined.
Consider `CCCCOCCOc1ccc(-c2ccc3c(c2)C=C(C(=O)Nc2ccc(SCc4c(C)ncn4CCC)cc2)CCCN3CC(C)C)cc1` [Compound 36, 8-[4-(2-butoxyethoxy)phenyl]-1-isobutyl-N-[4-[[[4-methyl-1-propylimidazol-5-yl]methyl]sulfanyl]phenyl]-1,2,3,4-tetrahydro-1-benzoazocine-5-carboxamide], for which the inhibition at 1 µM came out at 97%.
For `CCCCOCCOc1ccc(-c2ccc3c(c2)C=C(C(=O)Nc2ccc(SCc4cncn4CCC)c(C)c2)CCCN3CC(C)C)cc1` [Compound 38, 8-[4-(2-butoxyethoxy)phenyl]-1-isobutyl-N-[3-methyl-4-[[[1-propylimidazol-5-yl]methyl]sulfanyl]phenyl]-1,2,3,4-tetrahydro-1-benzoazocine-5-carboxamide], the inhibition at 1 µM turned out to be 94%.
Same read-out and setting: the figure for `CCCCOCCOc1ccc(-c2ccc3c(c2)C=C(C(=O)Nc2ccc([S+]([O-])Cc4cncn4CCC)c(C)c2)CCCN3CC(C)C)cc1` (stereo not drawn) [Compound 39, 8-[4-(2-butoxyethoxy)phenyl]-1-isobutyl-N-[3-methyl-4-[[[1-propylimidazol-5-yl]methyl]sulfinyl]phenyl]-1,2,3,4-tetrahydro-1-benzoazocine-5-carboxamide] is 99%; for `CCCCOCCOc1ccc(-c2ccc3c(c2)C=C(C(=O)Nc2ccc([S+]([O-])Cc4cncn4CCC)cc2)CCCN3CCC)cc1` (single isomer, unassigned; (-)) [Compound 9, (−)-8-[4-(2-butoxyethoxy)phenyl]-1-propyl-N-[4-[[[1-propylimidazol-5-yl]methyl]sulfinyl]phenyl]-1,2,3,4-tetrahydro-1-benzoazocine-5-carboxamide] it is 100%; for `CCCCOCCOc1ccc(-c2ccc3c(c2)C=C(C(=O)Nc2ccc(SCc4cncn4CCC)cc2)CCCN3CCC)cc1` [Compound 3, 8-[4-(2-butoxyethoxy)phenyl]-1-propyl-N-[4-[[[1-propylimidazol-5-yl]methyl]sulfanyl]phenyl]-1,2,3,4-tetrahydro-1-benzazocine-5-carboxamide] it is 91%.
Consider `CCCCOCCOc1ccc(-c2ccc3c(c2)C=C(C(=O)Nc2ccc([S+]([O-])Cc4nncn4CCC)cc2)CCCN3CC(C)C)cc1` (single isomer, unassigned; (+)) [Compound 48, (+)-8-[4-(2-butoxyethoxy)phenyl]-1-isobutyl-N-[4-[[(4-propyl-4H-1,2,4-triazol-3-yl)methyl]sulfinyl]phenyl]-1,2,3,4-tetrahydro-1-benzazocine-5-carboxamide], for which the inhibition at 1 µM was 97%.
On the same count and under the same terms, the figure for `CCCCOCCOc1ccc(-c2ccc3c(c2)C=C(C(=O)Nc2ccc([S+]([O-])Cc4cncn4CCC)cc2)CCCN3Cc2cnn(C)c2)cc1` (single isomer, unassigned; (-)) [Compound 34, (−)-8-[4-(2-butoxyethoxy)phenyl]-1-((1-methylpyrazol-4-yl)methyl)-N-[4-[[[1-propylimidazol-5-yl]methyl]sulfinyl]phenyl]-1,2,3,4-tetrahydro-1-benzoazocine-5-carboxamide] is 97%.
As to `CCCCOCCOc1ccc(-c2ccc3c(c2)C=C(C(=O)Nc2ccc(CN(C)C4CCOCC4)cc2)CCCO3)cc1` [Compound 1, 8-[4-(2-butoxyethoxy)phenyl]-N-[4-[[N-methyl-N-(tetrahydropyran-4-yl)amino]methyl]phenyl]-3,4-dihydro-2H-1-benzoxocin-5-carboxamide], the inhibition at 1 µM turned out to be 94%.
Still for that read-out and setting: the figure for `CCCCOCCOc1ccc(-c2ccc3c(c2)C=C(C(=O)Nc2ccc([S+]([O-])Cc4nccn4CCC)cc2)CCCN3CCC)cc1` (single isomer, unassigned; (-)) [Compound 22, (−)-8-[4-(2-butoxyethoxy)phenyl]-1-propyl-N-[4-[[[1-propylimidazol-2-yl]methyl]sulfinyl]phenyl]-1,2,3,4-tetrahydro-1-benzoazocine-5-carboxamide] is 98%; for `CCCCOCCOc1ccc(-c2ccc3c(c2)C=C(C(=O)Nc2ccc([S+]([O-])Cc4cncn4CCC)cc2)CCCN3CC(C)C)cc1` (stereo not drawn) [Compound 7, 8-[4-(2-butoxyethoxy)phenyl]-1-isobutyl-N-[4-[[[1-propyl-1H-imidazol-5-yl]methyl]sulfinyl]phenyl]-1,2,3,4-tetrahydro-1-benzazocine-5-carboxamide] it is 100%; for `CCCCOCCOc1ccc(-c2ccc3c(c2)C=C(C(=O)Nc2ccc([S+]([O-])Cc4nncn4CCC)cc2)CCCN3CCC)cc1` (stereo not drawn) [Compound 50, 8-[4-(2-butoxyethoxy)phenyl]-1-propyl-N-[4-[[(4-propyl-4H-1,2,4-triazol-3-yl)methyl]sulfinyl]phenyl]-1,2,3,4-tetrahydro-1-benzazocine-5-carboxamide] it is 93%.
Consider `CCCCOCCOc1ccc(-c2ccc3c(c2)C=C(C(=O)Nc2ccc(S(=O)(=O)Cc4cncn4CCC)cc2)CCCN3CCC)cc1` [Compound 5, 8-[4-(2-butoxyethoxy)phenyl]-1-propyl-N-[4-[[[1-propylimidazol-5-yl]methyl]sulfonyl]phenyl]-1,2,3,4-tetrahydro-1-benzazocine-5-carboxamide], for which the inhibition at 1 µM turned out to be 86%.
With `CCCCOCCOc1ccc(-c2ccc3c(c2)C=C(C(=O)Nc2ccc(CN(C)C4CCOCC4)cc2)CCCN3CC(C)C)cc1` [Compound 42, 8-(4-(2-butoxyethoxy)phenyl)-1-isobutyl-N-(4-((methyl(tetrahydro-2H-pyran-4-yl)amino)methyl)phenyl)-1,2,3,4-tetrahydro-1-benzoazocine-5-carboxamide], the inhibition at 1 µM was 90%.

The same assay, now with this note: test compound 1 μM, 100 pM [125I]-RANTES as ligand, room temperature, 40 minutes.
Turning to `C=C(C)CN1CCCC(C(=O)Nc2ccc([S+]([O-])Cc3cncn3CCC)cc2)=Cc2cc(-c3ccc(OCCOCCCC)cc3)ccc21` (single isomer, unassigned; (-)) [Compound 23, (−)-8-[4-(2-butoxyethoxy)phenyl]-1-(2-methyl-2-propen-1-yl)-N-[4-[[[1-propylimidazol-5-yl]methyl]sulfinyl]phenyl]-1,2,3,4-tetrahydro-1-benzoazocine-5-carboxylic], the “Binding Inhibitory Ratio (%)” value is 97%.
Same read-out and setting: to `CCCCOCCOc1ccc(-c2ccc3c(c2)C=C(C(=O)Nc2ccc([S+]([O-])Cc4nncn4CCC)cc2)CCCN3CC(C)C)cc1` (single isomer, unassigned; (-)) [Compound 49, (−)-8-[4-(2-butoxyethoxy)phenyl]-1-isobutyl-N-[4-[[(4-propyl-4H-1,2,4-triazol-3-yl)methyl]sulfinyl]phenyl]-1,2,3,4-tetrahydro-1-benzazocine-5-carboxamide] belongs 91%; to `CCCCOCCOc1ccc(-c2ccc3c(c2)C=C(C(=O)Nc2ccc([S+]([O-])Cc4cncn4CCC)cc2)CCCN3CC(C)C)cc1.CS(=O)(=O)O` (single isomer, unassigned; (-)) [Compound 14, (−)-8-[4-(2-butoxyethoxy)phenyl]-1-isobutyl-N-[4-[[[1-propyl-1H-imidazol-5-yl]methyl]sulfinyl]phenyl]-1,2,3,4-tetrahydro-1-benzoazocine-5-carboxamide methanesulfonate], 98%.
Same read-out and setting: the figure for `CCCCOCCOc1ccc(-c2ccc3c(c2)C=C(C(=O)Nc2ccc([S+]([O-])Cc4nncn4CCC)cc2)CCCN3CCC)cc1` (single isomer, unassigned; (-)) [Compound 52, (−)-8-[4-(2-butoxyethoxy)phenyl]-1-propyl-N-[4-[[[4-propyl-4H-1,2,4-triazol-3-yl]methyl]sulfinyl]phenyl]-1,2,3,4-tetrahydro-1-benzazocine-5-carboxamide] is 96%.
For `CCCCOCCOc1ccc(-c2ccc3c(c2)C=C(C(=O)Nc2ccc([S+]([O-])Cc4nncn4CCC)cc2)CCCN3CCC)cc1` (single isomer, unassigned; (+)) [Compound 53, (+)-8-[4-(2-butoxyethoxy)phenyl]-1-propyl-N-[4-[[(4-propyl-4H-1,2,4-triazol-3-yl)methyl]sulfinyl]phenyl]-1,2,3,4-tetrahydro-1-benzazocin-5-carboxamide], the “Binding Inhibitory Ratio (%)” value amounted to 100%.
